The results in this text go back to patent US20250009702A1 (SICHUAN JIUZHANG BIOLOGICAL SCIENCE AND TECHNOLOGY CO., LTD., priority 2021, published 2025).

Molecules are shown by their SMILES.

For data set [1], the system named is pfeiffer cancer cells (diffuse large B-cell lymphoma cell line). In words: MTS assay of the in vitro inhibitory effect on DLBCL cells (pfeiffer). It is filed as cell-based. Particulars: for OD value Mean / OD value 1 / OD value 2 / OD value 3: MTS, 490 nm; for OD value 1: well 1; for OD value 2: well 2; for OD value 3: well 3. The protocol: 2.2 MTS Assay of the In Vitro Inhibitory Effect of the Treatment Group on DLBCL Cells (Pfeiffer)
The cells in logarithmic growth phase were digested with 0.25% trypsin, washed with the basic medium, and centrifuged (1000 r/min, twice in 5 minutes). The cells were suspended with complete medium, and the cell concentration was adjusted to […], which was inoculated into a 96-well plate at 50 μl/well (6×10^3 cells/well).
The next day, after the cells adhered to the wall, the drug was given to each group and then incubated for 48 h at a constant temperature of 37° C. under 5% CO2. The dosage for each well is 100 μl. For the blank group, no cell was inoculated, and an equal amount of medium (100 μl) was added; the negative control group received an equal amount of medium (100 μl) after cell inoculation, and 3 wells were set for one group.
20 μl of MTS was added to each well. The plate was further cultivated for 3 h for color development, and then shaken for 10 seconds before testing, to mix well.
The OD value was determined at a wavelength of 490 nm using an enzyme-linked immunosorbent assay (ELISA), and the OD value of the blank control was adjusted to 0.
In general terms: Tetrazolium assays rely on reduction of a dye to a coloured formazan, in cell work by metabolically active cells.

The test system of data set [2] is DLBCL in the brain (DLBCL Ly8 cell lines). Description: In vivo treatment of DLBCL in the brain (Ly8 transplanted tumor model). The following applies: i.p. 3 mg/kg once every two days.
Text: DLBCL Ly8 cell lines were purchased from the Cancer Hospital of Fudan University, which were suspended, cultured, and passaged in 10% calf serum DMEM complete medium, with stable growth. Cells in the logarithmic growth phase were collected, centrifuged, counted, and diluted to 10^4/μl for later use. Cells were inoculated at 2×10^4 cells/animal.
(§1) BALB/c mice: 60 mice, half male and half female, 3-4 weeks old, weighing 15-22 g, purchased from the Experimental Animal Management Center of West China Medical Center.
The mice were anesthetized by intraperitoneal injection of 1% pentobarbital sodium (0.2 μl), fixed on a stereotactic device, and disinfected with 2% chlorhexidine iodine solution on the skin of skull part. The injection site of the syringe was 0.1 cm to the left or right of the midline of the skull, and 0.3 cm in front of the coronal suture in mice. The microsyringe was sequentially penetrated through the skin and skull of the mouse skull part, and was fixed about 1-2 mm into the skull. 2 μl of Ly8 cell suspension was slowly injected (about 2×10^4 cells), and the injection was performed within 15 minutes, followed by leaving the needle for 5 minutes to allow the cells to fully attach, and then slowly removing the needle. […] During sleep after anesthesia, the mice were kept at 30° C. for 2 h. After anesthesia wore off, the mice were placed at room temperature of 25° C., and the surface changes were observed 24 h after inoculation. The following symptoms were observed: topical protrusion on the injection side, body emaciation, lethargy, and decreased mobility.
The mice in the above test drug groups receiving the prepared drug were administered by intraperitoneal injection at 0.2 mL/10 g body weight. The drug preparation was formulated prior to daily administration, and given for 14 days.
(§2) During the administration period, the growth of the mouse tumor, eating, activity, and other adverse reactions were observed and recorded every other day. After 14 days of administration, the mice were euthanized using cervical dislocation method, and their body weight and tumor size were measured and recorded according to the pre-administration numbers. The tumor inhibition rate (%) was calculated based on tumor weight.
The test system of data set [3] is DLBCL in the orbit (DLBCL pfeiffer cell lines). Description: In vivo treatment of DLBCL in the orbit (pfeiffer transplanted tumor model).
Experimental: DLBCL pfeiffercell lines were purchased from ATCC, USA.
as §1
The cells were thawed in a 37° C. water bath according to the method provided by ATCC, and cultured in RPMI-1640 medium. The medium was exchanged or the cells were passaged every 1-2 days. When the cells were in a stable proliferative state, the cells with good vitality were selected from the 2nd to 3rd generations and counted under a microscope using a cell counting board. The concentration of inoculate cells was adjusted to 1.5×10^8/ml, and sealed for later use.
The tumor cell suspension inoculation method was used. Before cell inoculation, all mice were subjected to cesium-137 radiation to further immunosuppress and improve the success rate of inoculation. Tumor cells were inoculated within 6 hours after irradiation. After disinfecting with 75% alcohol around the eyes, 0.1 ml of tumor cell suspension was drawn using an 1 ml empty needle, and injected into the orbit through the skin of the upper temporal eyelid. […] After inoculation, high-pressure sterilized water containing 100000 U/L of gentamicin was given for one week to prevent infection. 5% glucose with egg yolk was orally administered daily to enhance nutrition. The growth state of mice and local tumor growth was observed every day.
The drug preparation was formulated prior to daily administration, and given for 14 days.
as §2
Where [4] appears, read: Homo sapiens, 10 μg/ml, 48 h, pfeiffer cells, read-out: Inhibition rate (%).
The mark [5] stands for this setting: i.p. 3 mg/kg once every two days, 14 days.

One may read the inhibition as the share of the control response that was lost under treatment. Turning to `O=C(/C=C/c1ccc(O)c(O)c1)O[C@@H]1C[C@](O)(C(=O)O)C[C@@H](O)[C@H]1O` [CHA, Chlorogenic acid], the “OD value Mean” value in data set [1] (5 μg/ml, 48 h) amounted to 1.263; in data set [1] (10 μg/ml, 48 h) it was 1.149; in data set [1] (30 μg/ml, 48 h), 0.998; in data set [1] (50 μg/ml, 48 h), 0.628; in data set [1] (100 μg/ml, 48 h), 0.658. Also, the “OD value 1” value in data set [1] (5 μg/ml, 48 h) is on record as 1.335; in data set [1] (10 μg/ml, 48 h), 1.156; in data set [1] (30 μg/ml, 48 h), 1.006; in data set [1] (50 μg/ml, 48 h), 0.630; in data set [1] (100 μg/ml, 48 h), 0.661. For the same molecule, the “OD value 2” value in data set [1] (5 μg/ml, 48 h) amounted to 1.221; in data set [1] (10 μg/ml, 48 h), 1.142; in data set [1] (30 μg/ml, 48 h) it was 1.007; in data set [1] (50 μg/ml, 48 h), 0.621; in data set [1] (100 μg/ml, 48 h), 0.65. In addition, the “OD value 3” value in data set [1] (5 μg/ml, 48 h) worked out at 1.233; in data set [1] (10 μg/ml, 48 h), 1.15; in data set [1] (30 μg/ml, 48 h), 0.98; in data set [1] (50 μg/ml, 48 h), 0.634; in data set [1] (100 μg/ml, 48 h) it was 0.664. In addition, the “cell morphology / growth of pfeiffer cancer cell lines under inverted microscope” value in data set [1] (50-100 μg/ml, 48 h) is reported as “significant inhibitory effect”. The inhibition at 5 µg/mL in data set [1] (Homo sapiens, 5 μg/ml, 48 h, pfeiffer cells, read-out: Inhibition rate (%)) is 45.7%. Further, the inhibition at 10 µg/mL in data set [1] (setting [4]) was 50.6%. Also, the inhibition at 30 µg/mL in data set [1] (Homo sapiens, 30 μg/ml, 48 h, pfeiffer cells, read-out: Inhibition rate (%)) amounted to 57.1%. Moreover, in data set [1] (Homo sapiens, 50 μg/ml, 48 h, pfeiffer cells, read-out: Inhibition rate (%)), the inhibition at 50 µg/mL is 73%. Further, the inhibition at 100 µg/mL in data set [1] (Homo sapiens, 100 μg/ml, 48 h, pfeiffer cells, read-out: Inhibition rate (%)) was determined as 71.7%. The tumor inhibition rate in data set [1] (concentration 50-100 μg/ml, pfeiffer cells) is on record as 71.68-72.97%. Further, the “inhibitory effect on pfeiffer cancer cells compared with methotrexate” value in data set [1] (same dose 10 μg/ml) is given as “higher inhibitory effect”.

As for `CN(Cc1cnc2nc(N)nc(N)c2n1)c1ccc(C(=O)N[C@@H](CCC(=O)O)C(=O)O)cc1` [methotrexate], in data set [1] (10 μg/ml, 48 h), the “OD value Mean” value is recorded as 1.193, the “OD value 1” value is 1.202, the “OD value 2” value came out at 1.193 and the “OD value 3” value is 1.185. The inhibition at 10 µg/mL in data set [1] (setting [4]) amounted to 48.7%. Also, in data set [2] (14 days), the “Survival number (mouse)” value is 6 mouse, the “Tumor inhibition rate (%)” value came out at 41.06%, the “Tumor weight” value stood at 0.79 ± 0.12 g and the “Weight (g) After treatment” value is listed as 17.26 ± 0.65 g. In data set [2] (positive control group), this molecule yielded a deaths of 1. The “Body weight (g) Before administration” value in data set [3] (before administration, group later given i.p. 3 mg/kg once every two days) was determined as 19.31 ± 0.66 g. In addition, in data set [3] (setting [5]), the “Body weight (g) After administration” value came out at 18.23 ± 0.79 g, the “Survival number (mice)” value was 6 mice and the “Tumor inhibition rate (%)” value is 41.14%. Besides, the deaths in data set [3] (positive control group, i.p. 3 mg/kg once every two days) is given as 1.
